Tests used:
Format in all cases: in vivo, rat
[1] = Concentration of pesticides and metabolites in hair of rats after 90-day gavage exposure to a pesticide mixture; details: for Slope (linear fit), concentration in hair versus level of exposure: exposure expressed as mg/kg per day, concentration as pg/mg, detected values only
Protocol: (§1) Eight rats were randomly assigned to each of the experimental groups. A low-calorie water gel that contained the pesticides was administered via gavage to these rats three times per week for 90 days. The doses of the pesticides mixture used for exposure were 4, 10, 20, 40, 100, 200, and 400 µg/kg of body weight. The exposure range was set as follows: The lowest dose was the lowest level allowing the detection of pesticides in hair after a 90-day exposure, based on preliminary experiments not detailed here. Testing lower levels would not have been relevant because some compounds would not be detected anymore (analytical limitation). In addition, for some other compounds, no differences were detected in the current experiment between the lowest level of exposure and the background exposure of the controls. The highest dose was set according to toxicity of compounds, which corresponded to 1/20 of the lowest LD50 (carbofuran). The animals were weighed before each administration in order to adapt the amount of pesticide-containing mixture to the animals’ weight.
(§2) The animals were shaved before the experiment began to ensure that the hair collected at the end of the study accurately reflected the 90-day period of exposure. White and black hairs were collected separately, placed in aluminum foil, and stored at −20 °C until analysis. Blood was collected in EDTA tube from the tail vein, 3 h after oral administration on Day 90. Each sampling (500–750 µL) was immediately centrifuged at 5000×g for 3 min at room temperature, and plasma was separated and stored at −80 °C before analysis. For urine collection, the rats were placed in individual metabolic cages (Type 304 stainless steel, Techniplast, Zwaag, Netherlands) immediately after gavage for 24 h (from Day 88 to Day 89). The urine was collected in refrigerated tubes over a 24-h period and was weighed before storage at −20 °C.
(§3) Depending on the compounds, only parent pesticides, only metabolites, or both parent and metabolites were analyzed in the biological matrices. The chemicals were analyzed as previously described (Chata et al. [2016]; Hardy et al. [2015]). Despite the different nature of the biological matrices analyzed (liquid vs. solid), method protocols were developed to ensure similarity so they could be reliably compared to the information obtained from each matrix, thereby ensuring that differences were not likely attributable to analytical bias. […] Because analytical background noise was absent from the chromatograms because tandem mass spectrometry was used, the approaches based on background noise for determining the limit of detection (LOD) were not applicable. The LOD was therefore determined as the lowest concentration that was detected in the samples analyzed during this study. Selectivity was ensured by analyte retention time and by the quantification transition to confirmation transition ratio that had to be lower than the 20% difference from the ratio obtained with standard compounds. The LOD ranged from 0.02 pg/mg for β-endosulfan to 2.7 pg/mg for dichlorodiphenyltrichloroethane (p,p′-DDT) in hair, from 0.2 pg/mL for trifluralin to 13.6 ng/mL for 2-isopropoxyphenol (2-IPP) in urine, and from 2.4 pg/mL for β-endosulfan to 679 pg/mL for p,p′-DDT in plasma. Because the analysis of parent pesticides and metabolites was conducted on the same hair sample, the addition of parent organophosphate isotope-labeled analog standards was not possible because their degradation into non-labeled dialkyl phosphate (DAP) during the analytical procedure would have hindered the analysis of DAP due to exposure. In hair, only organophosphate metabolites (not parents) were therefore quantified, and only qualitative results were obtained for parents.
(§4) The association between the level of exposure and the analyte concentration in the matrix (i.e., hair, urine, and plasma) was assessed by the Pearson product-moment correlation coefficient (R Pearson). […]

[2] = Concentration of pesticides and metabolites in plasma of rats after 90-day gavage exposure to a pesticide mixture; details: for Slope (linear fit), concentration in plasma versus level of exposure: exposure expressed as mg/kg per day, concentration as ng/mL, detected values only; for Concentration range in plasma (detection): ND = not detected, whatever the level of exposure
Protocol: as §1, §2, §3, §4

[3] = Influence of hair pigmentation: concentration in white hair versus pigmented hair; details: slope close to 1 = poor influence of pigmentation
Protocol: as §2
The influence of hair pigmentation on pesticide incorporation was assessed by comparing the concentration detected in white hair versus pigmented hair which were collected and analyzed separately from each animal. […] For the majority of the chemicals tested during the current study, pigmentation seemed to have a very limited effect on the concentration in hair, and only few compounds seemed to be pigmentation sensitive.

[4] = Concentration of pesticides and metabolites in 24-h urine of rats after 90-day gavage exposure to a pesticide mixture; details: for Slope (linear fit), concentration in urine versus level of exposure: exposure expressed as mg/kg per day, concentration as ng/mL, detected values only; for Concentration range in urine (detection): ND = not detected, whatever the level of exposure
Protocol: as §1, §2, §3, §4

| Compound | Slope (linear fit), concentration in hair versus level of exposure [1] | Slope (linear fit), concentration in plasma versus level of exposure [2] | Slope, concentration in white hair versus pigmented hair [3] | Slope (linear fit), concentration in urine versus level of exposure [4] | other results |
| --- | --- | --- | --- | --- | --- |
| CC(C)Oc1ccccc1O [2-IPP, 2-isopropoxyphenol] | 26.3 | 10.4 | 0.692 | 1.0 E + 06 | – |
| O=C(O)c1cccc(Oc2ccccc2)c1 [3-PBA, 3-phenoxybenzoic acid] | 7.08 | 422 | 1.070 | 1.5 E + 05 | – |
| CC1(C)Cc2cccc(O)c2O1 [Carbofuran phenol] | 35.10 | 1.73 | 1.109 | 1.0 E + 06 | – |
| CC1(C)C(C=C(Cl)Cl)C1C(=O)O (centres unmarked) [Cl2CA, 3-(2,2-dichlorovinyl)-2,2-dimethylcyclopropane-1-carboxylic acid] | 49.20 | 139 | 0.498 | 1.0 E + 06 | – |
| CC1(C)C(C=C(Cl)C(F)(F)F)C1C(=O)O (centres unmarked) [ClCF3CA, 3-(2-chloro-3,3,3-trifluoro-1-propenyl)-2,2-dimethylcyclopropane carboxylic acid] | 5.22 | 9.79 | 0.220 | 1.6 E + 05 | – |
| CC1(C)C(C=C(Cl)Cl)C1C(=O)OC(C#N)c1cccc(Oc2ccccc2)c1 (centres unmarked) [Cypermethrin] | – | 10.1 | 0.495 | – | Exposure level from which detected in hair [1]: 200 µg/kg; Exposure level from which detected in plasma [2]: 10 µg/kg |
| CCOP(O)(=S)OCC [DETP, diethylthiophosphate] | 10.47 | 3.26 | 0.608 | 9.9 E + 05 | – |
| CCOP(=S)(OCC)Oc1cc(C)nc(C(C)C)n1 [Diazinon] | – | – | – | – | Concentration range in plasma (detection) [2]: not detected |
| ClC1=C(Cl)[C@]2(Cl)[C@@H]3[C@@H]4C[C@@H]([C@H]5O[C@@H]45)[C@@H]3[C@@]1(Cl)C2(Cl)Cl [Dieldrin] | 427.8 | 305 | 1.000 | 2 069 | – |
| O=C(Nc1ccc(F)cc1F)c1cccnc1Oc1cccc(C(F)(F)F)c1 [Diflufenican] | 35.94 | 15.2 | 0.937 | 99 | Exposure level from which detected in urine [4]: 20 µg/kg |
| N#Cc1nn(-c2c(Cl)cc(C(F)(F)F)cc2Cl)c(N)c1S(=O)(=O)C(F)(F)F [Fipronil sulfone] | 772 | 976 | 1.114 | 10 650 | – |
| N#Cc1nn(-c2c(Cl)cc(C(F)(F)F)cc2Cl)c(N)c1[S+]([O-])C(F)(F)F (centres unmarked) [Fipronil] | 31.5 | – | 1.017 | 2 016 | Exposure level from which detected in urine [4]: 10 µg/kg |
| CC(C)Oc1cc(-n2nc(C(C)(C)C)oc2=O)c(Cl)cc1Cl [Oxadiazon] | 11.45 | 38.5 | 0.860 | – | Concentration range in urine (detection) [4]: not detected |
| Oc1c(Cl)c(Cl)c(Cl)c(Cl)c1Cl [Pentachlorophenol] | 169.0 | 2039 | 0.705 | 82 841 | – |
| CC1(C)C(C=C(Cl)Cl)C1C(=O)OCc1cccc(Oc2ccccc2)c1 (centres unmarked) [Permethrin] | – | 1.04 | – | – | Exposure level from which detected in plasma [2]: 100 µg/kg |
| CCCC1COC(Cn2cncn2)(c2ccc(Cl)cc2Cl)O1 (centres unmarked) [Propiconazole] | 6.47 | – | 0.825 | – | Concentration range in plasma (detection) [2]: not detected; Concentration range in urine (detection) [4]: not detected |
| Oc1nc(Cl)c(Cl)cc1Cl [TCPy, 3,5,6-trichloro-2-pyridinol] | 85.6 | 109 | 0.435 | 2.5 E + 06 | – |
| CCCN(CCC)c1c([N+](=O)[O-])cc(C(F)(F)F)cc1[N+](=O)[O-] [Trifluralin] | 1.107 | 1.57 | 0.688 | 4 | Slope (linear fit), concentration in hair versus level of exposure ([1]; listed as trifluralin): 1.11 |
| Clc1ccc(C(c2ccc(Cl)cc2)C(Cl)Cl)cc1 [p,p′-DDD, p,p′-dichlorodiphenyldichloroethane] | 24.0 | 13.1 | 0.673 | – | Exposure level from which detected in hair [1]: 40 µg/kg per day; Exposure level from which detected in plasma [2]: 40 µg/kg; Concentration range in urine (detection) [4]: not detected |
| ClC(Cl)=C(c1ccc(Cl)cc1)c1ccc(Cl)cc1 [p,p′-DDE, p,p′-dichlorodiphenyldichloroethylene] | 273.5 | 289 | 1.287 | – | Exposure level from which detected in urine [4]: 200 µg/kg |
| Clc1ccc(C(c2ccc(Cl)cc2)C(Cl)(Cl)Cl)cc1 [p,p′-DDT, dichlorodiphenyltrichloroethane] | 184.7 | 175 | 0.876 | – | Exposure level from which detected in hair [1]: 20 µg/kg per day; Exposure level from which detected in urine [4]: 200 µg/kg |
| O=S1OC[C@@H]2[C@H](CO1)[C@]1(Cl)C(Cl)=C(Cl)[C@]2(Cl)C1(Cl)Cl (stereo partly drawn) [β-Endosulfan, β-endosulfan] | 2.71 | 1.50 | 0.965 | – | Concentration range in urine (detection) [4]: not detected |
| CC1(C)C(/C=C(\Cl)C(F)(F)F)C1C(=O)OC(C#N)c1cccc(Oc2ccccc2)c1 (centres unmarked) [λ-Cyhalothrin] | 5.050 | 116 | 1.079 | – | Exposure level from which detected in hair [1]: 20 µg/kg; Concentration in plasma relative to cypermethrin ([2]; at equal level of exposure): approximately 10 times; Concentration in plasma relative to permethrin ([2]; at equal level of exposure): approximately 100 times; Exposure level from which detected in plasma [2]: 4 µg/kg |

Reference: publication PMC5515982, “Hair analysis for the biomonitoring of pesticide exposure: comparison with blood and urine in a rat model” (Archives of Toxicology, 2016)
